Laboratory results published in paper PMC12293755, “Synthesis and Cytotoxicity Evaluation of Denitroaristolochic Acids: Structural Insights and Mechanistic Implications in Nephrotoxicity” (Biomolecules, 2025).

Experiments:
[1] = CCK-8 cytotoxicity assay in HK2 cells; type: cell-based, human; conditions: human, CCK-8, 24 h compound exposure, 3 to 1000 μM, ND: not detected, read-out: IC50 (μM), cytotoxic effects on HK2 cells in vitro
Description: (§1) This study systematically investigated the cytotoxic effects and structure-activity relationships of denitroaristolochic acid analogs (DAA-II, DAA-III, DAA-IV, DAA-V) on human renal cortical proximal tubular epithelial cells (HK2) using the cell counting kit-8 (CCK-8) assay. HK2 cells were maintained in Dulbecco’s modified eagle medium (DMEM) supplemented with 10% fetal bovine serum under standard culture conditions (37 °C, 5% CO2). At 80% confluence, cells were trypsinized and seeded into 96-well plates at a density of 1 × 10^4 cells/well, followed by a 4–6 h attachment period prior to compound exposure. Stock solutions ([…]) of each DAA were prepared in DMSO and serially diluted to final concentrations ranging from 3 to 1000 μM, with DMSO concentration strictly maintained at 0.5% (v/v) in all treatment groups. Experimental controls included AA-I as positive control and 0.5% DMSO-containing medium as vehicle control. Following 24 h compound exposure, cell viability was assessed using CCK-8 reagent according to manufacturer specifications: 10 μL CCK-8 solution was added to each well, followed by 2 h incubation under light-protected conditions. Absorbance was measured at 450 nm using a microplate reader, with morphological observations conducted via inverted phase-contrast microscopy.
(§2) This study systematically evaluated the cytotoxic effects of aristolochic acids (AAs) on HK2 cells (the HK2 cell lines were from the Cell Bank of the Chinese Academy of Sciences) using the CCK-8 assay. […] This finding provides novel insights into the toxicological mechanisms of aristolochic acid analogs, and their precise mode of action warrants further elucidation through integrated toxicological approaches, including metabolomic profiling, signaling pathway screening, and molecular docking studies.

[2] = system: HK2 cells; assay: CCK-8 cytotoxicity assay in HK2 cells; type: cell-based, human; conditions: CCK-8, 24 h compound exposure, 3 to 1000 μM
Description: as §1, §2

SMILES	cytotoxicity in human renal proximal tubular epithelial cells (result in words) [2]	IC50 [1]	further results
COc1cccc2c1cc([N+](=O)[O-])c1c(C(=O)O)cc3c(c12)OCO3 [AA-I, aristolochic acid I, reference compound]			IC50 at 24 h [1]: 270 µM
COc1cc2ccc3c(C(=O)O)cc4c(c3c2cc1OC)OCO4 [DAA-V, 9,10-Dimethoxyphenanthro [3,4-d][1,3]dioxole-5-carboxylic acid]	no detectable cytotoxicity		
COc1ccc2ccc3c(C(=O)O)cc4c(c3c2c1)OCO4 [DAA-III, 10-Methoxyphenanthro [3,4-d][1,3]dioxole-5-carboxylic acid]		371 µM	
O=C(O)c1cc2c(c3c1ccc1ccccc13)OCO2 [DAA-II, phenanthro [3,4-d][1,3]dioxole-5-carboxylic acid]	no detectable cytotoxicity		
COc1cc(OC)c2ccc3c(C(=O)O)cc4c(c3c2c1)OCO4 [DAA-IV, 8,10-dimethoxyphenanthro [3,4-d][1,3]dioxole-5-carboxylic acid]		515 µM	
